*1 amine or outer side, *2 acyl side, *3 side chain or, on linkers, in order; H or OH if unused. Where a SMILES comes first, the peptide text is derived from it. Side-chain parts run from the residue outwards. [ ]: non-standard residue; d: D form. The star is where a group is joined. N(2-Aminoethyl)Gly = O=C(CN(CCN[*:3])[*:1])[*:2]; C18 diacid = O=C(O)CCCCCCCCCCCCCCCCC(=O)*; C16 diacid = O=C(O)CCCCCCCCCCCCCCC(=O)*; γGlu = O=C(O)[C@H](CCC(=O)[*:2])N[*:1]; εLys = N[C@@H](CCCCN[*:1])C(=O)[*:2]; AEEA = NCCOCCOCC(=O)O; Aib = CC(C)(N)C(=O)O; Sar = CNCC(=O)O
Experiments:
in vivo = assay: in vivo; parameters: species or system beagle dogs; details: dog, po, 300 mg; for Tmax / half-life: male, beagle
Protocol: The purpose of this method is to determine the terminal half-life and plasma exposure in vivo of the compounds of the present invention after p.o. administration to beagle dogs, i.e. the terminal half-life and concentration of test substance that reaches circulation with time. This is done in a pharmacokinetic (PK) study, where these parameters of the compound in question are determined. By terminal half-life is generally meant the period of time it takes to halve a certain plasma concentration, measured after the initial distribution phase.
Tablet compositions comprising the test compounds obtained from Example 1 and SNAC (sodium N-(8-(2-hydroxybenzoyl)amino)caprylate) were prepared according to methods known to the person skilled in the art by mixing test substance with roller compacted SNAC and magnesium stearate as e.g. described in WO 2019/149880. Each tablet was comprised of 7.7 mg magnesium stearate, 2-4 mg of each compound tested, and 300 mg SNAC.
Male beagle dogs, 1-7 years of age and weighing 9-17 kg during the study period, were included in the study. The dogs were dosed in a fasting state. The dogs were group housed in pens (12 hours light: 12 hours dark), and fed individually and restrictedly once daily with Royal Canin Medium Adult dog food (Royal Canin Products, China Branch, or Brogaarden A/S, Denmark). The dogs were used for repeated PK studies with a suitable wash-out period between successive dosing. An appropriate acclimatisation period was given prior to initiation of the first PK study. All handling, dosing, and blood sampling of the animals were performed by trained and skilled staff. Before the studies, the dogs were fasted overnight and from 0 to 4 hours after dosing. The dogs were restricted to water 1 hour before dosing until 4 hours after dosing, but otherwise had adlibitum access to water during the whole period.
The compositions were administered by a single oral dosing to the dogs in groups of 6-8 dogs. The tablets were administered in the following manner: 10 min prior to tablet administration, the dogs may be dosed subcutaneously with approximately 3 nmol/kg of SEQ ID NO.: 7 ([…]), then tablets were placed in the back of the mouth of the dog to prevent chewing. The mouth was then closed, and 10 mL of tap water was given by syringe or gavage to facilitate swallowing of the tablet.
One blood sample was drawn before dosing, and additional samples were drawn at predefined time points after dosing, such as for up to 600 hours, to adequately cover the full plasma concentration-time absorption profile of the test substance. For each blood sample time point, approximately 0.8 mL of whole blood was collected in a 1.5 mL EDTA-coated tube, which was gently turned to mix the sample with EDTA. Blood samples were collected in EDTA buffer (8 mM) and then centrifuged at 4° C. and 2000 g for 10 minutes. Plasma was pipetted into Micronic tubes on dry ice, and kept at −20° C. or lower until analysis. Blood samples were taken as appropriate, for example from a venflon in the cephalic vein in the front leg for the first 2 hours and then with syringe from the jugular vein for the rest of the time points. The first few drops were allowed to drain from the venflon to avoid heparin saline from the venflon in the sample. All blood samples were collected into test tubes containing EDTA for stabilisation and kept on ice until centrifugation. Plasma was separated from whole blood by centrifugation and the plasma was stored at −20° C. or lower until analysis.
The plasma was analysed for test substance using LC-MS (Liquid Chromatography-Mass Spectrometry) as known to the person skilled in the art. […]

physchem = format: physicochemical; details: buffer, pH 7.4
Protocol: The assay was performed to investigate the conversion half-life of prodrug to drug of the prodrugs of the invention. The conversion half-life was investigated in vitro at pH 7.4 upon incubation at 37° C.
Test compounds were dissolved to a concentration of 100 μM in phosphate-buffered saline (140 mM NaCl, 2.07 mM KCl, 8.05 mM Na2HPO4, 1.96 mM KH2PO4, pH 7.4). Solution pH was measured after dissolution and adjusted to pH 7.4 with aqueous NaOH if necessary. The solution was filtered through a 0.22 μm syringe filter, then incubated in a water bath at 37° C. Aliquots were withdrawn at defined timepoints, e.g. every 24-72 hours, for LCMS analysis.
LCMS analysis was performed using the procedure defined in LCMS_A above. The AUC of the prodrug, active drug, and DKP were determined using UV detection at 214 nm, and the ratio of prodrug AUC over total AUC of prodrug plus active drug plus DKP was calculated. The negative natural logarithm of this ratio was plotted over time, and a linear regression of this relationship was then performed.
The prodrug to drug conversion half-life of the compounds of the invention was measured as described in General Methods for Measuring Conversion Half-life.

Molecule: CC[C@H](C)[C@H](NC(=O)[C@H](Cc1ccccc1)NC(=O)[C@H](CCC(=O)O)NC(=O)[C@H](CCCNC(=N)N)NC(=O)[C@H](C)NC(=O)[C@H](C)NC(=O)[C@H](CCC(N)=O)NC(=O)[C@H](CCC(=O)O)NC(=O)[C@H](CCC(=O)O)NC(=O)[C@H](CC(C)C)NC(=O)[C@H](CC(C)C)NC(=O)[C@@H](NC(=O)[C@H](CO)NC(=O)[C@H](Cc1ccc(O)cc1)NC(=O)[C@H](CC(=O)O)NC(=O)[C@H](CO)NC(=O)[C@@H](NC(=O)[C@H](Cc1ccccc1)NC(=O)[C@@H](NC(=O)CNC(=O)[C@H](CCC(=O)O)NC(=O)C(C)(C)NC(=O)[C@@H](N)Cc1ccc(O)cc1)[C@@H](C)O)[C@@H](C)O)[C@@H](C)CC)C(=O)N[C@@H](CCC(=O)O)C(=O)N[C@@H](Cc1c[nH]c2ccccc12)C(=O)N[C@@H](CC(C)C)C(=O)N[C@@H](CC(C)C)C(=O)N[C@@H](C)C(=O)NCC(=O)NCC(=O)N1CCC[C@H]1C(=O)N[C@@H](CO)C(=O)N[C@@H](CCCCNC(=O)[C@@H](N)CCCCNC(=O)[C@@H](N)CCCCNC(=O)CC[C@H](NC(=O)CCCCCCCCCCCCCCCCC(=O)O)C(=O)O)C(=O)NCC(=O)N[C@@H](C)C(=O)N1CCC[C@H]1C(=O)N1CCC[C@H]1C(=O)N1CCC[C@H]1C(=O)N[C@@H](CO)C(=O)O [Parent compound 3] (H-Y[Aib]EGTFTSDYSILLEEQAAREFIEWLLAGGPSK([εLys-εLys-γGlu-C18 diacid])GAPPPS-OH)
- AUC/Dose (in vivo): 21.4 kg·h/L
- Cmax/Dose (in vivo): 0.22 kg/L

Molecule: H-K([γGlu-C16 diacid])VY[Aib]EGTFTSDYSILLEEQAAREFIEWLLAGGPSK([εLys-εLys-γGlu-C16 diacid])GAPPPS-OH [Non-converting compound 2]
- AUC/Dose (in vivo): 10.8 kg·h/L
- Cmax/Dose (in vivo): 0.13 kg/L
- Tmax (in vivo): 1.3 h
- half-life (in vivo): 130 h

Molecule: H-K([γGlu-C16 diacid])[Sar]Y[Aib]EGTFTSDYSILLEK([εLys-εLys-γGlu-C18 diacid])QAAREFIEWLLAGGPSSGAPPPS-OH [Compound 16]
- half-life at 100 μM (physchem): 117 h
- AUC/Dose (in vivo): 67.6 kg·h/L
- Cmax/Dose (in vivo): 0.73 kg/L
- Tmax (in vivo): 4 h
- half-life (in vivo): 96 h

Molecule: H-P[N(2-Aminoethyl)Gly]([γGlu-C16 diacid])Y[Aib]EGTFTSDYSILLEEQAAREFIEWLLAGGPSK([AEEA-AEEA-γGlu-C16 diacid])GAPPPS-OH [Compound 6]
- half-life at 100 μM (physchem): 440 h

Molecule: H-[dK]([εLys-γGlu-C16 diacid])[Sar]Y[Aib]EGTFTSDYSILLEEQAAREFIEWLLAGGPSK([AEEA-AEEA-γGlu-C16 diacid])GAPPPS-OH [Compound 11]
- half-life at 100 μM (physchem): 182 h

Molecule: H-K([γGlu-C16 diacid])VY[Aib]EGTFTSDYSILLEK([εLys-εLys-γGlu-C18 diacid])QAAREFIEWLLAGGPSSGAPPPS-OH [Non-converting compound 3]
- AUC/Dose (in vivo): 31.4 kg·h/L
- Cmax/Dose (in vivo): 0.27 kg/L
- Tmax (in vivo): 4 h
- half-life (in vivo): 115 h

Molecule: CC[C@H](C)[C@H](NC(=O)[C@H](CC(C)C)NC(=O)[C@H](Cc1c[nH]c2ccccc12)NC(=O)[C@H](CCC(N)=O)NC(=O)[C@@H](NC(=O)[C@H](Cc1ccccc1)NC(=O)[C@H](C)NC(=O)[C@H](CCCCNC(=O)COCCOCCNC(=O)COCCOCCNC(=O)CC[C@H](NC(=O)CCCCCCCCCCCCCCCCCCC(=O)O)C(=O)O)NC(=O)[C@H](CCC(N)=O)NC(=O)[C@H](C)NC(=O)[C@@H](NC(=O)[C@H](CCCCN)NC(=O)[C@H](CC(=O)O)NC(=O)[C@H](CC(C)C)NC(=O)C(C)(C)NC(=O)[C@@H](NC(=O)[C@H](CO)NC(=O)[C@H](Cc1ccc(O)cc1)NC(=O)[C@H](CC(=O)O)NC(=O)[C@H](CO)NC(=O)[C@@H](NC(=O)[C@H](Cc1ccccc1)NC(=O)[C@@H](NC(=O)CNC(=O)[C@H](CCC(=O)O)NC(=O)C(C)(C)NC(=O)[C@@H](N)Cc1ccc(O)cc1)[C@@H](C)O)[C@@H](C)O)[C@@H](C)CC)[C@@H](C)CC)C(C)C)C(=O)N[C@@H](C)C(=O)NCC(=O)NCC(=O)N1CCC[C@H]1C(=O)N[C@@H](CO)C(=O)N[C@@H](CO)C(=O)NCC(=O)N[C@@H](C)C(=O)N1CCC[C@H]1C(=O)N1CCC[C@H]1C(=O)N1CCC[C@H]1C(=O)N[C@@H](CO)C(N)=O [Parent compound 5]
- AUC/Dose (in vivo): 13.0 kg·h/L
- Cmax/Dose (in vivo): 0.22 kg/L
- Tmax (in vivo): 1 h
- half-life (in vivo): 134 h

Molecule: H-G[N(2-Aminoethyl)Gly]([γGlu-C16 diacid])Y[Aib]EGTFTSDYSILLEEQAAREFIEWLLAGGPSK([AEEA-AEEA-γGlu-C16 diacid])GAPPPS-OH [Compound 2]
- half-life at 100 μM (physchem): 363 h
- AUC/Dose (in vivo): 22.9 kg·h/L
- Cmax/Dose (in vivo): 0.18 kg/L
- Tmax (in vivo): 4 h
- half-life (in vivo): 142 h

Molecule: H-D[N(2-Aminoethyl)Gly]([γGlu-C16 diacid])Y[Aib]EGTFTSDYSILLEEQAAREFIEWLLAGGPSK([AEEA-AEEA-γGlu-C16 diacid])GAPPPS-OH [Compound 7]
- half-life at 100 μM (physchem): 38 h

Molecule: H-K([γGlu-γGlu-C16 diacid])[Sar]Y[Aib]EGTFTSDYSILLEEQAAREFIEWLLAGGPSK([AEEA-AEEA-γGlu-C16 diacid])GAPPPS-OH [Compound 8]
- half-life at 100 μM (physchem): 125 h

Molecule: H-L[N(2-Aminoethyl)Gly]([γGlu-C16 diacid])Y[Aib]EGTFTSDYSILLEEQAAREFIEWLLAGGPSK([AEEA-AEEA-γGlu-C16 diacid])GAPPPS-OH [Compound 5]
- half-life at 100 μM (physchem): 74 h
- AUC/Dose (in vivo): 23.4 kg·h/L
- Cmax/Dose (in vivo): 0.25 kg/L
- Tmax (in vivo): 7 h
- half-life (in vivo): 106 h

Molecule: CC[C@H](C)[C@H](NC(=O)[C@H](CC(C)C)NC(=O)[C@H](Cc1c[nH]c2ccccc12)NC(=O)[C@H](CCC(N)=O)NC(=O)[C@@H](NC(=O)[C@H](Cc1ccccc1)NC(=O)[C@H](C)NC(=O)[C@H](CCCCNC(=O)COCCOCCNC(=O)COCCOCCNC(=O)CC[C@H](NC(=O)CCCCCCCCCCCCCCCCCCC(=O)O)C(=O)O)NC(=O)[C@H](CCC(N)=O)NC(=O)[C@H](C)NC(=O)[C@@H](NC(=O)[C@H](CCCCN)NC(=O)[C@H](CC(=O)O)NC(=O)[C@H](CC(C)C)NC(=O)C(C)(C)NC(=O)[C@@H](NC(=O)[C@H](CO)NC(=O)[C@H](Cc1ccc(O)cc1)NC(=O)[C@H](CC(=O)O)NC(=O)[C@H](CO)NC(=O)[C@@H](NC(=O)[C@H](Cc1ccccc1)NC(=O)[C@@H](NC(=O)CNC(=O)[C@H](CCC(=O)O)NC(=O)C(C)(C)NC(=O)[C@H](Cc1ccc(O)cc1)NC(=O)[C@@H](NC(=O)[C@@H](N)CCCCNC(=O)CC[C@H](NC(=O)CCCCCCCCCCCCCCC(=O)O)C(=O)O)C(C)C)[C@@H](C)O)[C@@H](C)O)[C@@H](C)CC)[C@@H](C)CC)C(C)C)C(=O)N[C@@H](C)C(=O)NCC(=O)NCC(=O)N1CCC[C@H]1C(=O)N[C@@H](CO)C(=O)N[C@@H](CO)C(=O)NCC(=O)N[C@@H](C)C(=O)N1CCC[C@H]1C(=O)N1CCC[C@H]1C(=O)N1CCC[C@H]1C(=O)N[C@@H](CO)C(N)=O [Non-converting compound 4]
- AUC/Dose (in vivo): 18.9 kg·h/L
- Cmax/Dose (in vivo): 0.16 kg/L
- Tmax (in vivo): 7 h
- half-life (in vivo): 136 h

Molecule: H-G[N(2-Aminoethyl)Gly]([γGlu-C16 diacid])Y[Aib]EGTFTSDYSILLEK([εLys-εLys-γGlu-C18 diacid])QAAREFIEWLLAGGPSSGAPPPS-OH [Compound 17]
- AUC/Dose (in vivo): 30.4 kg·h/L
- Cmax/Dose (in vivo): 0.30 kg/L
- Tmax (in vivo): 1.5 h
- half-life (in vivo): 105 h

Molecule: H-A[N(2-Aminoethyl)Gly]([γGlu-C16 diacid])Y[Aib]EGTFTSDYSILLEEQAAREFIEWLLAGGPSK([AEEA-AEEA-γGlu-C16 diacid])GAPPPS-OH [Compound 4]
- half-life at 100 μM (physchem): 97 h

— patent US11840560B2, “Prodrugs and uses thereof” (Novo Nordisk A/S, priority 2022, dated 2023)
